Tests used:
[1] = molecular target: Tyrosine-protein kinase receptor UFO (Homo sapiens) (UniProt P30530); assay: Residual activity of human Axl at 1 uM relative to control
[2] = molecular target: Angiopoietin-1 receptor (Homo sapiens) (UniProt Q02763); assay: Residual activity of human Tie2 at 1 uM relative to control
Homo sapiens = species: Homo sapiens; assay: Residual activity of human CDK6/Cyclin D at 1 uM relative to control
[3] = tested on: Tyrosine-protein kinase ABL1 (Homo sapiens), P00519 [T315I]; assay: Residual activity of human Abl T315I mutant at 1 uM relative to control
Rattus norvegicus [4] = species: Rattus norvegicus; assay: Inhibition of rat AMPK at 1 uM relative to control; values are per cent of control
Rattus norvegicus [5] = species: Rattus norvegicus; assay: Inhibition of rat CaMK2 at 1 uM relative to control; values are per cent of control
[6] = molecular target: Casein kinase II (Homo sapiens) (UniProt P67870+P68400+P19784); assay: Inhibition of human CK2 at 1 uM relative to control; values are per cent of control
[7] = molecular target: Serine/threonine-protein kinase Chk2 (Homo sapiens) (UniProt O96017); assay: Inhibition of human CHK2 at 1 uM relative to control; values are per cent of control
Serine/threonine-protein kinase Chk2 (Homo sapiens), sequence (O96017 whole entry): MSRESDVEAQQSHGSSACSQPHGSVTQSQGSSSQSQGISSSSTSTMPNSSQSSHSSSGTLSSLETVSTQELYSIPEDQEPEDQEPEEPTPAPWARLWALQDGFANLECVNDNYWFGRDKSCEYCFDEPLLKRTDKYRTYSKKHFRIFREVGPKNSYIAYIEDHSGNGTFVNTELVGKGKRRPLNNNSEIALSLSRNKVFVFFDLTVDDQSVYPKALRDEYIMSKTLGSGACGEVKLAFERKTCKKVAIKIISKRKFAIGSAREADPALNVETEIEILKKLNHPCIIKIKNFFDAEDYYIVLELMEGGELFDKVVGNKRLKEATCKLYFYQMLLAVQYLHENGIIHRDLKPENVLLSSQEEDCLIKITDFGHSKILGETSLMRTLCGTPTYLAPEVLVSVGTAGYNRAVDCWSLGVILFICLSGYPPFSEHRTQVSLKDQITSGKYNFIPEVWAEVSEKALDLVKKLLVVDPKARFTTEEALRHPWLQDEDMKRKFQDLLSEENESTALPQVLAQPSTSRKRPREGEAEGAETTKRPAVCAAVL

[8] = molecular target: T1, Serine/threonine-protein kinase Nek2 (Homo sapiens) (UniProt P51955); assay: Inhibition of human NEK2 at 1 uM relative to control; values are per cent of control
T1 sequence (whole entry): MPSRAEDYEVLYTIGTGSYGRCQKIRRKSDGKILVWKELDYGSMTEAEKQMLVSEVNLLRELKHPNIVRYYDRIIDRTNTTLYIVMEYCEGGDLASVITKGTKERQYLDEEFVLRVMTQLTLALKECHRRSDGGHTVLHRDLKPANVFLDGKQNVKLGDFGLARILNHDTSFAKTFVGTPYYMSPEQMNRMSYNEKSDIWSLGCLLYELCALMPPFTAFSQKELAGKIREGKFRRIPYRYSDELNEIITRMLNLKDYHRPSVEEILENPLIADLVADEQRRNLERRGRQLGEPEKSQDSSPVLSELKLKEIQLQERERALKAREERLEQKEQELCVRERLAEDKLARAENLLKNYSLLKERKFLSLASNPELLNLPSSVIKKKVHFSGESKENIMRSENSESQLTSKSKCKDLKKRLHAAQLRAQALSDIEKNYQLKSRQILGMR

[9] = molecular target: T2, MAP kinase-activated protein kinase 5 (Homo sapiens) (UniProt Q8IW41); assay: Inhibition of human PRAK at 1 uM relative to control; values are per cent of control
T2 sequence (whole entry): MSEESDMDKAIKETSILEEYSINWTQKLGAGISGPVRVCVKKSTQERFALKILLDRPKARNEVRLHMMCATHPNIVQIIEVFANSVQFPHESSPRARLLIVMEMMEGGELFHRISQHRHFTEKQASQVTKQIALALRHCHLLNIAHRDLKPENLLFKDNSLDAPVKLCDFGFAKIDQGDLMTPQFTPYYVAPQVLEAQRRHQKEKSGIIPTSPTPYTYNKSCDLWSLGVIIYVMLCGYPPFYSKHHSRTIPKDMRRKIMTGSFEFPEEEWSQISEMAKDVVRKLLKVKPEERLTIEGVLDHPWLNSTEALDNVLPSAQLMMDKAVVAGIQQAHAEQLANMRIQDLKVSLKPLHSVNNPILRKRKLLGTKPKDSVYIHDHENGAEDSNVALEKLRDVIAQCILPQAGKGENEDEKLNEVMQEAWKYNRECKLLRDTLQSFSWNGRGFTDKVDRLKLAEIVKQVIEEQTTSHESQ

[10] = molecular target: Ribosomal protein S6 kinase alpha-2 (Homo sapiens) (UniProt Q15349); assay: Inhibition of human Rsk2 at 1 uM relative to control; values are per cent of control
Ribosomal protein S6 kinase alpha-2 (Homo sapiens), sequence (Q15349 whole entry): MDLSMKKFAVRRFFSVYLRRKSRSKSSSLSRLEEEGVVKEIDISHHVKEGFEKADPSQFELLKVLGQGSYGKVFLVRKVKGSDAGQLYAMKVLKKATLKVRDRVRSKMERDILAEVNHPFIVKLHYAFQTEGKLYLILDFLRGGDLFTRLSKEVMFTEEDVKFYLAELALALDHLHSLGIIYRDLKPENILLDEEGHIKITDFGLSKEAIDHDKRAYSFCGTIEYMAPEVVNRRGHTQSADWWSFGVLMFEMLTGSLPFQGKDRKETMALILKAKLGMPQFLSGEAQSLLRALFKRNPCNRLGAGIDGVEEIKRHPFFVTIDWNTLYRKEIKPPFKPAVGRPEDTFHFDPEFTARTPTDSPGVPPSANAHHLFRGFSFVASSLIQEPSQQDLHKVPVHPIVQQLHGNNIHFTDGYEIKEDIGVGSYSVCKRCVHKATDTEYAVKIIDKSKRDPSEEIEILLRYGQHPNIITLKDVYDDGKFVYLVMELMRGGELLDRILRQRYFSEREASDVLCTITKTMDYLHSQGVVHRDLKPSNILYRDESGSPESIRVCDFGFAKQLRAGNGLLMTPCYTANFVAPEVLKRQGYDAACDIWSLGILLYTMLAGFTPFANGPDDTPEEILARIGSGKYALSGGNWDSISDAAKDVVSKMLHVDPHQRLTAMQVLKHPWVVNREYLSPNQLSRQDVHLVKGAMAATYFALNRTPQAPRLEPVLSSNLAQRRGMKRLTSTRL

[11] = molecular target: T3, Mitogen-activated protein kinase 13 (Homo sapiens) (UniProt O15264); assay: Inhibition of human SAPK4 at 1 uM relative to control; values are per cent of control
T3 sequence (whole entry): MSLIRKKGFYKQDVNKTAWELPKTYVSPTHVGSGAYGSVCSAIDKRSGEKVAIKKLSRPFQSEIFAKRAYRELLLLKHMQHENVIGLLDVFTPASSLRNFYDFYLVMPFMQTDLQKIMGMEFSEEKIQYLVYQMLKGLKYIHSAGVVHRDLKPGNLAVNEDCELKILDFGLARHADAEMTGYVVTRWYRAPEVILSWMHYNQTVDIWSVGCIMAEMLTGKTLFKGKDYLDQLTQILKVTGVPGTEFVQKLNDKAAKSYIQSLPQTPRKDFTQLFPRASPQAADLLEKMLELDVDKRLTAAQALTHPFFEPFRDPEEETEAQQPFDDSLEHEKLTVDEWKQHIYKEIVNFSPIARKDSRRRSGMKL

[12] = molecular target: T4, Protein kinase C iota type (Homo sapiens) (UniProt P41743); assay: Inhibition of human PKCiota at 1 uM relative to control; values are per cent of control
T4 sequence (whole entry): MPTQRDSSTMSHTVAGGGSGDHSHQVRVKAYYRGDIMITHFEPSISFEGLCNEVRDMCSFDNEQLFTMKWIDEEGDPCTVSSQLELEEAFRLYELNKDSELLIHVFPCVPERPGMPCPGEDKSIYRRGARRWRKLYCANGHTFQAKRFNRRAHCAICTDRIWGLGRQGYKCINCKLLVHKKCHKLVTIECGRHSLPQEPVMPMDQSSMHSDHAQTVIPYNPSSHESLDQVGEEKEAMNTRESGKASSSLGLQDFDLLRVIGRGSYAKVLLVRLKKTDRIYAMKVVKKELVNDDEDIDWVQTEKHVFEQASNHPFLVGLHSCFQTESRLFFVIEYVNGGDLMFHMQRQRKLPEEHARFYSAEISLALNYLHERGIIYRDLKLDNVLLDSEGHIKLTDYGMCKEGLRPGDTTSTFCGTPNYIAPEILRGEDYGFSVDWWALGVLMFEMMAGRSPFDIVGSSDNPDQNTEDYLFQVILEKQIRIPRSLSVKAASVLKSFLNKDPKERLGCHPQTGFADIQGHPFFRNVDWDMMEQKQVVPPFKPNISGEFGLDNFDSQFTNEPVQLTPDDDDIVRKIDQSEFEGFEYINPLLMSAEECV

[13] = molecular target: Mitogen-activated protein kinase 9 (Homo sapiens) (UniProt P45984); assay: Inhibition of human JNK2-alpha-2 at 1 uM relative to control; values are per cent of control
Mitogen-activated protein kinase 9 (Homo sapiens), sequence (P45984 whole entry, looked up): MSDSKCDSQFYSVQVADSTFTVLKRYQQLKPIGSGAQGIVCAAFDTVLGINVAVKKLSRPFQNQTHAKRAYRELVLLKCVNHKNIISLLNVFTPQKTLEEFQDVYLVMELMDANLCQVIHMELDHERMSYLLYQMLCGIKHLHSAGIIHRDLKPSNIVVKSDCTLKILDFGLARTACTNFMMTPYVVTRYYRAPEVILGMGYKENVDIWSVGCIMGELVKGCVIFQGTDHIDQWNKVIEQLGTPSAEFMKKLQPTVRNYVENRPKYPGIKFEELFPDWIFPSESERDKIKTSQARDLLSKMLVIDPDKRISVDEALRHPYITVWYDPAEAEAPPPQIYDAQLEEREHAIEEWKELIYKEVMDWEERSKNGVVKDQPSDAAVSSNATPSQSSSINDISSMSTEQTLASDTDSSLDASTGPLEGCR

Tyrosine-protein kinase receptor UFO (Homo sapiens), sequence (P30530 whole entry): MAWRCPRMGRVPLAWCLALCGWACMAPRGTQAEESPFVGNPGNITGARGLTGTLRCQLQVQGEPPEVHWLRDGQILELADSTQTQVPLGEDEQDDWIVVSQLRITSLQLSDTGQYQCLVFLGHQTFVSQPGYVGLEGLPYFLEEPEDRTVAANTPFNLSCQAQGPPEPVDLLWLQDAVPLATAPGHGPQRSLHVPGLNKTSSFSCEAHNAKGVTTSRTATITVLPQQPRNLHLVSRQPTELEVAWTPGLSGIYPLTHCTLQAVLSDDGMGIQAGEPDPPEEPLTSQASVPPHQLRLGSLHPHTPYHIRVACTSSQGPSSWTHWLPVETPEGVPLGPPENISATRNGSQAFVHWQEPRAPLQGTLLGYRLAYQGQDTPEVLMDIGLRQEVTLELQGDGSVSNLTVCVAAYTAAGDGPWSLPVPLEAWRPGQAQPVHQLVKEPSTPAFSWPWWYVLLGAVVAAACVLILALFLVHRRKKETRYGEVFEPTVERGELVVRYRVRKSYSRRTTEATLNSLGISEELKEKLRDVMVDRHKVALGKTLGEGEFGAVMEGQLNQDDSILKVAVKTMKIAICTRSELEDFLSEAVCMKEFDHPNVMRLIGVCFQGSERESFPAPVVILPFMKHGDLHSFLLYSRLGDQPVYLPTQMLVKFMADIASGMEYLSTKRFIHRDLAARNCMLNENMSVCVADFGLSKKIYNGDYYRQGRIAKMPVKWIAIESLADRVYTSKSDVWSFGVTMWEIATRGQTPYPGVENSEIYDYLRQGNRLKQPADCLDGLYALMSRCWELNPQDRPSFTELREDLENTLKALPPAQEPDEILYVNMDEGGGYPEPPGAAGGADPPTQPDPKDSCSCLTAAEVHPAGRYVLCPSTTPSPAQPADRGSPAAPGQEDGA
Angiopoietin-1 receptor (Homo sapiens), sequence (Q02763 whole entry): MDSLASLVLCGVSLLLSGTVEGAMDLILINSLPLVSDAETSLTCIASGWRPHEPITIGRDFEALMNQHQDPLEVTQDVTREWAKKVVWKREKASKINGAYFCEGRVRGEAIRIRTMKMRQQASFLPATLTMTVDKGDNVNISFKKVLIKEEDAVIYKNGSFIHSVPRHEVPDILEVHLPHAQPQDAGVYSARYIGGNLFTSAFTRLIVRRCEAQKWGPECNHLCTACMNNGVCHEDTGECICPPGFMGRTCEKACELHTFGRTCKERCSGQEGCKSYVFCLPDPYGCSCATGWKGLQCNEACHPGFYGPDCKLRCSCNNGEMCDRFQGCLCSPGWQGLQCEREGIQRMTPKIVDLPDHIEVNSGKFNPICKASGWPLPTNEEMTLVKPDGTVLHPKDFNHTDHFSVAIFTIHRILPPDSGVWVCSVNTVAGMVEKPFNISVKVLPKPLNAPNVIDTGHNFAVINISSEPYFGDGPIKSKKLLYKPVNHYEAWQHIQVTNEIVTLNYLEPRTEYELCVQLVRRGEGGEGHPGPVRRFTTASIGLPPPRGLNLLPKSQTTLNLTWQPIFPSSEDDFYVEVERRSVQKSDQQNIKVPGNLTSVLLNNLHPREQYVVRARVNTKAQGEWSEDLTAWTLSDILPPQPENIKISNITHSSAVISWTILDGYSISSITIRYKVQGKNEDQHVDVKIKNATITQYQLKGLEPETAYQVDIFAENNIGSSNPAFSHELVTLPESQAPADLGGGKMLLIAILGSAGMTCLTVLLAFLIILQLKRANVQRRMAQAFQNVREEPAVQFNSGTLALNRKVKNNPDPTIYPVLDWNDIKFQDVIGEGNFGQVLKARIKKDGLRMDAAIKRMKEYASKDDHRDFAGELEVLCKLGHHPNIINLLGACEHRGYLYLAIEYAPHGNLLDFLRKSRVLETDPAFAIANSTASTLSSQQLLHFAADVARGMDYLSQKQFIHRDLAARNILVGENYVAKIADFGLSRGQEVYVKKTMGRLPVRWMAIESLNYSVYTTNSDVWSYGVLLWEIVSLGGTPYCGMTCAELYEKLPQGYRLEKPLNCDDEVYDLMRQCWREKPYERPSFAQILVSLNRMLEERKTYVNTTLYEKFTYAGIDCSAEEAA

| residual activity [1] | residual activity [2] | residual activity (Homo sapiens) | residual activity [3] | residual activity (Rattus norvegicus [4]) | residual activity (Rattus norvegicus [5]) | residual activity [6] | residual activity [7] | residual activity [8] | residual activity [9] | residual activity [10] | residual activity [11] | residual activity [12] | residual activity [13] | SMILES |
| --- | --- | --- | --- | --- | --- | --- | --- | --- | --- | --- | --- | --- | --- | --- |
| 97% | 110% | 86% | 100% | 101% | 92% | 107% | 91% | 104% | 88% | 32% | 101% | 85% | 96% | CN(C)c1nc2ccc1CCCn1cc(c3ccccc31)C1=C(C(=O)NC1=O)c1cn(c3ccccc13)CC2 |
| 104% | 109% | 74% | 79% | 101% | 107% | 111% | 94% | 102% | 96% | 10% | 104% | 109% | 106% | CN(C)c1cc2cc(n1)CCCn1cc(c3ccccc31)C1=C(C(=O)NC1=O)c1cn(c3ccccc13)CCC2 |
| 106% | 96% | 82% | 77% | 105% | 109% | 108% | 84% | 105% | 101% | 12% | 102% | 102% | 114% | O=C1NC(=O)C2=C1c1cn(c3ccccc13)CCCc1cc(nc(N3CCCC3)c1)CCCn1cc2c2ccccc21 |
| 100% | 107% | 92% | 103% | 99% | – | 113% | 91% | 99% | 102% | 63% | 102% | 97% | 110% | O=C1NC(=O)C2=C1c1cn(c3ccccc13)CCCc1ccc(c(N3CCCC3)n1)CCCn1cc2c2ccccc21 |
